Results taken from US20080167282A1, “Use of Inhibitors of Steroid Activity for the Treatment of Substance Related Disorders” (priority 2005, published 2008).

Assay: Study on the cocaine addiction: case report of a patient treated for hirsutism
Assay type: in vivo, human
Conditions: cocaine user; 50 mg 1 cp daily; after 6 months of therapy (treatment lasted approximately 9 months)
Protocol: In the course of the follow up transaminases and hormones were assayed.

CC(=O)O[C@]1(C(C)=O)CC[C@H]2[C@@H]3C=C(Cl)C4=CC(=O)[C@@H]5C[C@@H]5[C@]4(C)[C@H]3CC[C@@]21C [cyproterone acetate]
cocaine use status during follow up: drug free
